# Test results taken from patent US20060084694A1, “Ligand-dependant activation of Nur77 and uses thereof” (priority 2004, published 2006).
# “Also recorded” adds a separate entry of the source.
# Assays:
# Type in all cases: cell-based
# [1] = tested on: Panc-28 cells; experiment: Cell survival of Panc-28 cells
# Description: The different cancer cell lines were cultured under standardized conditions. Panc-28 cells were grown in DMEM:Ham's F-12 media containing 2.5% charcoal stripped fetal bovine serum, and cells were treated with DMSO and different concentrations of test compounds as indicated. For longer term cell survival studies, the media was changed every second day, and values were presented for a 4 day experiment.
# [2] = tested on: TRAIL; experiment: TRAIL protein expression in Panc-28 cells (Western blot)
# Source text: In thymocytes, there is evidence that Nur77-induced apoptosis is linked to transcriptional activation (uang, et al., 1999), and microarray studies in thymocytes undergoing Nur77-dependent apoptosis identified several apoptosis-related genes including fasL and TRAIL (Rajpal, et al., 2003). […] (FIG. 6B). Since TRAIL activates the extrinsic apoptosis pathway and activation of caspase 8, the effect of a caspase 8 inhibitor (Z-IETD-FMK) and the pan-caspase inhibitor (Z-VAD-FMK) was also investigated on induction of PARP cleavage by Nur77 agonists (FIG. 6C).
# [3] = tested on: PARP cleavage; experiment: PARP cleavage in Panc-28 cells (Western blot)
# Description: The different cancer cell lines were cultured under standardized conditions. Panc-28 cells were grown in DMEM:Ham's F-12 media containing 2.5% charcoal stripped fetal bovine serum, and cells were treated with DMSO and different concentrations of test compounds as indicated. For longer term cell survival studies, the media was changed every second day, and values were presented for a 4 day experiment. For all other assays, cytosolic, nuclear fractions, or whole cell lysates were obtained at various time points, analyzed by Western blot analysis, and bands were quantitated as previously described (Qin, et al., 2004; Abdelrahim, et al., 2002). Immunocytochemical analysis was determined using Nur77 antibodies as previously reported (Abdelrahim, et al., 2002).
# [4] = target: T1, GAL4-Nur77(E/F) (Homo sapiens, UniProt P22736); experiment: GAL4-Nur77(E/F)/pGAL4 transactivation in Panc-28 cells; settings: 5-15 μM (FIG. 2A)
# T1 construct: a chimeric GAL4-Nur77(E/F) construct containing only the E/F domain of Nur77; expressed in transfected cells; host or cells: Panc-28
# Source text: (§1) Transfection assays were essentially carried out as previously described using Lipofectamine Plus reagent (Invitrogen, Carlsbad, Calif.) and luciferase activities were normalized to β-galactosidase activity. […] Results are expressed as means±SE for at least three replicate determinations for each treatment group.
# (§2) (FIG. 2A). […] The structural specificity of Nur77 antagonists was further investigated using meta-hydroxy (DIM-C-mPhOH) and ortho-hydroxy (DIM-C-oPhOH) analogs. […] Thus, activation of Nur77 by C-DIMs was E/F domain-dependent and Nur77 activation was inhibited by DIM-C-pPhOH; moreover, both activation and inhibition of Nur77-mediated transactivation was dependent on the structure of the C-DIM compounds.
# [5] = target: T2, GAL4-Nur77 (Homo sapiens, UniProt P22736); experiment: Nur77 antagonist assay: cotreatment with Nur77 agonists, GAL4-Nur77/pGAL4 in Panc-28 cells; settings: Panc-28, cotreatment with Nur77 agonists; 10 or 20 μM (FIG. 2C-2E)
# T2 construct: expressed in transfected cells; host or cells: Panc-28
# Source text: as §1, §2
# [6] = target: Nur77 (Homo sapiens, UniProt P22736); experiment: Nur response element (NurRE) luciferase transactivation in Panc-28 cells; design: endogenous in cells; host or cells: Panc-28; settings: 10 or 20 μM (FIG. 1C)
# [7] = target: T3, GAL4-Nur77 (full length) chimera (Homo sapiens, UniProt P22736); experiment: GAL4-Nur77 (full length)/pGAL4 luciferase transactivation in Panc-28 cells; settings: Panc-28 cells, 10 or 20 μM (FIG. 1B)
# T3 construct: Panc-28 cells transfected with a GAL4-Nur77 (full length) chimera; expressed in transfected cells; host or cells: Panc-28
# Source text: Structure-dependent activation of Nur77 by a series of eleven C-substituted DIMs was investigated in Panc-28 cells transfected with a GAL4-Nur77 (full length) chimera and a reporter construct containing five GAL4 response elements linked to a luciferase reporter gene (pGAL4).
# as §1
# [8] = Panc-28, cotreatment with DIM-C-pPhOH3 or DIM-C-Ph (FIG. 6E)
# T3 sequence (P22736 whole entry, change not shown, the tested form may be a part): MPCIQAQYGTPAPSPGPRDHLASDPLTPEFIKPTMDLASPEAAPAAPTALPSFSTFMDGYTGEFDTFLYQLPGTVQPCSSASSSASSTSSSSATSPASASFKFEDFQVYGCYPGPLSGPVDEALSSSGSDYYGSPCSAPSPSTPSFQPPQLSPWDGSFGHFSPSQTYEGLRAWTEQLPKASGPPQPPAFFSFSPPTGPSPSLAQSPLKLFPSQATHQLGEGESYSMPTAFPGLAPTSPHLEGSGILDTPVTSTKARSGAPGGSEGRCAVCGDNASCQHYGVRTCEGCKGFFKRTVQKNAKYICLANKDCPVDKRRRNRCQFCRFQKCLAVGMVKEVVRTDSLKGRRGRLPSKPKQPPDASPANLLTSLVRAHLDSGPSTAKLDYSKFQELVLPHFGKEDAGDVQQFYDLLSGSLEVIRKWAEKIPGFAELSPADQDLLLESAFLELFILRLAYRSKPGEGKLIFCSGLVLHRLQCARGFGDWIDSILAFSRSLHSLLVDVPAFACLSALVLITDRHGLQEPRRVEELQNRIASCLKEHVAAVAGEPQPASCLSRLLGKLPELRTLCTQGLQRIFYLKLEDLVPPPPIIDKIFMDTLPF
# T2 sequence (P22736 whole entry, the tested form may be a part): as the sequence (P22736 whole entry, change not shown, the tested form may be a part) above
# Nur77, sequence (P22736 whole entry, the tested form may be a part): as the sequence (P22736 whole entry, change not shown, the tested form may be a part) above
# T1 sequence (P22736 360-595 limits assumed): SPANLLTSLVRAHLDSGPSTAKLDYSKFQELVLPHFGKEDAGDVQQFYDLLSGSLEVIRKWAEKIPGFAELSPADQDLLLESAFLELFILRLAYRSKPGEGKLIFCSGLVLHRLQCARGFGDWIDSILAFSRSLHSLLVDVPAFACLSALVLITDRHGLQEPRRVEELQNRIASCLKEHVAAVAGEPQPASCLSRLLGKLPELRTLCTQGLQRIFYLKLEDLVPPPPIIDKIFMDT
compound,measurement,setting,value
Oc1ccc(C(c2c[nH]c3ccccc23)c2c[nH]c3ccccc23)cc1 [DIM-C-pPhOH],effect on cell survival,[1]; Panc-28 (FIG. 5A),did not affect cell survival
same,cell proliferation at longer time points,"[1]; Panc-28, 4 and 6 days",slightly inhibited cell proliferation
same,induction of cell death,"[1]; Panc-28, concentrations as high as 20 μM",induction of cell death was not observed
same,inhibition of TRAIL protein expression induced by Nur77 agonists,[2]; [8],inhibited induction
same,TRAIL protein expression,[2]; Panc-28 cells (FIG. 6A),did not induce TRAIL
same,inhibition of PARP cleavage induced by Nur77 agonists,[3]; [8],inhibited induction
same,cleavage of PARP,[3]; Panc-28 cells (FIG. 5B),did not induce this response
same,"luciferase activity, GAL4-Nur77(E/F)/pGAL4",[4],no response was observed
same,Nur77 antagonist activity (inhibition of agonist-induced transactivation),[5],antagonizes activation of Nur77 by all three C-DIM compounds
same,activation of NurRE construct,[6],inactive
same,"luciferase activity, GAL4-Nur77 (full length)/pGAL4",[7],inactive; also recorded: did not induce activity
